Like-named read-outs stand apart in the source and are kept apart here.
What was measured:
[1] = target: full-length human HPK1 (MAP4K1) (Homo sapiens (Human), UniProt Q92918); assay: HPK1 Kinase Assay (Biochemical Assay), ADP-Glo; details: GST-HPK1 3.2 nM, 10 μM ATP, MBP substrate, read-out: HPK1 enzymatic IC50
In short: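 ADP-Glo luminescence after a 120-min kinase reaction gave percent inhibition and IC50. The enzyme was Sf21-expressed N-terminal GST full-length human HPK1 at 3.2 nM in HEPES pH 7.5 buffer with MgCl2, DTT, Brij-35 and BSA.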

[2] = target: HPK1 (SLP76 phosphorylation at Ser376 in Jurkat and EL-4 cells) (Homo sapiens, UniProt Q92918); type: cell-based
Sequence of HPK1 (SLP76 phosphorylation at Ser376 in Jurkat and EL-4 cells) (Q92918 whole entry, looked up): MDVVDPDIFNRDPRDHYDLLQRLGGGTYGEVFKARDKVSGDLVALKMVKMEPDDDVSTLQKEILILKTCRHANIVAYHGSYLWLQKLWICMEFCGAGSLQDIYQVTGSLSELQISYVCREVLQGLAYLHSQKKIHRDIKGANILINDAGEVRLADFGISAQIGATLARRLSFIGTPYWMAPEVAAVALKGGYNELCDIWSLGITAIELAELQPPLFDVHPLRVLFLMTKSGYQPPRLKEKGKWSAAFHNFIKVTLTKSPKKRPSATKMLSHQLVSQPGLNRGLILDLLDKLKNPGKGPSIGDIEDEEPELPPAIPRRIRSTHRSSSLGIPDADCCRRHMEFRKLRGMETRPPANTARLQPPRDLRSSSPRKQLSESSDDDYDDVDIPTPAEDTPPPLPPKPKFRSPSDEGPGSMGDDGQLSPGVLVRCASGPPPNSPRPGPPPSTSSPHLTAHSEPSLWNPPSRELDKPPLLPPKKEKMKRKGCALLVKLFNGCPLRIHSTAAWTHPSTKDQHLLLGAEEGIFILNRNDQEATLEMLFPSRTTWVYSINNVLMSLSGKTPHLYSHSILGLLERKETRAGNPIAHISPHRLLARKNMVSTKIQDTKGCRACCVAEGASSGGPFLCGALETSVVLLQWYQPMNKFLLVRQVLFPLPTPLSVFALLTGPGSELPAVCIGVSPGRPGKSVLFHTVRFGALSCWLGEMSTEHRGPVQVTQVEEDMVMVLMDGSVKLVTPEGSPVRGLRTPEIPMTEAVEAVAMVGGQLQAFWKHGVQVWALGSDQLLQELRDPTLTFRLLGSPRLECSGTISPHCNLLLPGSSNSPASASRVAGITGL
In short: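 Phospho-SLP76 (Ser376) in lysates measured by AlphaLISA for human Jurkat and by 19 h HTRF for mouse EL-4, giving % inhibition and IC50. Compounds applied 60 min before αCD3/αCD28 bead stimulation at 37 °C, lasting 15 min (Jurkat) or 30 min (EL-4).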

[3] = αCD3/αCD28 Dynabeads stimulated cells, pSLP76 (Ser376) detection; read-out: HPK1 pSLP76 IC50
[4] = read-out: HPK1 pSLP76 IC50; αCD3/αCD28 Dynabeads stimulated cells, pSLP76 (Ser376) detection

Sequence of full-length human HPK1 (MAP4K1) (Q92918 whole entry): as the sequence (Q92918 whole entry, looked up) above

SMILES	IC50 [1] [nM]	IC50 [2, 3] [nM]	IC50 [2, 4] [nM]
Cc1c(N2CCc3cnc(Nc4ccc(CS(C)(=O)=O)cc4)cc3C2)cnc2c1NCCO2 [Example 57, N-[4-(methanesulfonylmethyl)phenyl]-6-{8-methyl-1H,2H,3H-pyrido[2,3-b][1,4]oxazin-7-yl}-5,6,7,8-tetrahydro-2,6-naphthyridin-3-amine]	< 100	< 500	–
Cc1c(N2CCc3cnc(Nc4ccc(CS(C)(=O)=O)nc4)nc3C2)cnc2c1NCCO2 [Example 58, 6-(methanesulfonylmethyl)-N-(7-{8-methyl-1H,2H,3H-pyrido[2,3-b][1,4]oxazin-7-yl}-5H,6H,7H,8H-pyrido[3,4-d]pyrimidin-2-yl)pyridin-3-amine]	< 100	< 500	–
Cc1c(N2CCc3cnc(Nc4ccc(CN(C)C)cc4)nc3C2)cnc2c1NCCO2 [Example 59, N-{4-[(dimethylamino)methyl]phenyl}-7-{8-methyl-1H,2H,3H-pyrido[2,3-b][1,4]oxazin-7-yl}-5H,6H,7H,8H-pyrido[3,4-d]pyrimidin-2-amine; formic acid]	< 100	> 1000	–
Cc1c(N2CCc3cnc(Nc4cccc(CN5CCOCC5)c4)nc3C2)cnc2c1NCCO2 [Example 60, 7-{8-methyl-1H,2H,3H-pyrido[2,3-b][1,4]oxazin-7-yl}-N-{3-[(morpholin-4-yl)methyl]phenyl}-5H,6H,7H,8H-pyrido[3,4-d]pyrimidin-2-amine]	< 100	–	500 to 1000
Cc1c(N2CCc3cnc(Nc4cccc(N5CCN(C)CC5)c4)nc3C2)cnc2c1NCCO2 [Example 61, 7-{8-methyl-1H,2H,3H-pyrido[2,3-b][1,4]oxazin-7-yl}-N-[3-(4-methylpiperazin-1-yl)phenyl]-5H,6H,7H,8H-pyrido[3,4-d]pyrimidin-2-amine]	< 100	–	500 to 1000
CS(=O)(=O)Cc1ccc(Nc2ncc3c(n2)CN(c2cnc4c(c2Cl)NCCO4)CC3)cc1 [Example 63, 7-{8-chloro-1H,2H,3H-pyrido[2,3-b][1,4]oxazin-7-yl}-N-[4-(methanesulfonylmethyl)phenyl]-5H,6H,7H,8H-pyrido[3,4-d]pyrimidin-2-amine]	< 100	< 500	–
Cc1c(N2CCc3cnc(Nc4cccc(CN5CCN(C)CC5)c4)nc3C2)cnc2c1NCCO2 [Example 66, 7-{8-methyl-1H,2H,3H-pyrido[2,3-b][1,4]oxazin-7-yl}-N-{3-[(4-methylpiperazin-1-yl)methyl]phenyl}-5H,6H,7H,8H-pyrido[3,4-d]pyrimidin-2-amine]	< 100	500 to 1000	–
Cc1c(N2CCc3cnc(Nc4ccnc(C(C)(C)O)c4)nc3C2)cnc2c1NCCO2 [Example 67, 2-{4-[(7-{8-methyl-1H,2H,3H-pyrido[2,3-b][1,4]oxazin-7-yl}-5H,6H,7H,8H-pyrido[3,4-d]pyrimidin-2-yl)amino]pyridin-2-yl}propan-2-ol]	< 100	500 to 1000	–
Cc1c(N2CCc3cnc(Nc4cc5n(n4)CC(=O)N(C)CC5)cc3C2)cnc2c1NCCO2 [Example 68, 6-methyl-2-[(6-{8-methyl-1H,2H,3H-pyrido[2,3-b][1,4]oxazin-7-yl}-5,6,7,8-tetrahydro-2,6-naphthyridin-3-yl)amino]-4H,5H,6H,7H,8H-pyrazolo[1,5-d][1,4]diazepin-7-one]	< 100	< 500	–
Cc1c(N2CCc3cnc(Nc4ccc(CS(C)(=O)=O)cc4)nc3C2)cnc2c1NCCO2 [Example 69, N-[4-(methanesulfonylmethyl)phenyl]-7-{8-methyl-1H,2H,3H-pyrido[2,3-b][1,4]oxazin-7-yl}-5H,6H,7H,8H-pyrido[3,4-d]pyrimidin-2-amine]	< 100	< 500	–
COC(=O)Nc1ccc(Nc2ncc3c(n2)CN(c2cnc4c(c2C)NCCO4)CC3)cc1 [Example 71, methyl N-{4-[(7-{8-methyl-1H,2H,3H-pyrido[2,3-b][1,4]oxazin-7-yl}-5H,6H,7H,8H-pyrido[3,4-d]pyrimidin-2-yl)amino]phenyl}carbamate]	< 100	< 500	–
Cc1c(N2CCc3cnc(Nc4ccnc(N5CCN(C)CC5)c4)nc3C2)cnc2c1NCCO2 [Example 72, N-(7-{8-methyl-1H,2H,3H-pyrido[2,3-b][1,4]oxazin-7-yl}-5H,6H,7H,8H-pyrido[3,4-d]pyrimidin-2-yl)-2-(4-methylpiperazin-1-yl)pyridin-4-amine]	< 100	< 500	–
CC(=O)Nc1ccc(Nc2ncc3c(n2)CN(c2cnc4c(c2C)NCCO4)CC3)cn1 [Example 73, N-(5-((7-(8-methyl-2,3-dihydro-1H-pyrido[2,3-b][1,4]oxazin-7-yl)-5,6,7,8-tetrahydropyrido[3,4-d]pyrimidin-2-yl)amino)pyridin-2-yl)acetamide]	< 100	500 to 1000	–
CNC(=O)c1ccc(Nc2ncc3c(n2)CN(c2cnc4c(c2C)NCCO4)CC3)cc1F [Example 74, 2-fluoro-N-methyl-4-((7-(8-methyl-2,3-dihydro-1H-pyrido[2,3-b][1,4]oxazin-7-yl)-5,6,7,8-tetrahydropyrido[3,4-d]pyrimidin-2-yl)amino)benzamide]	< 100	< 500	–
Cc1c(N2CCc3cnc(Nc4ccnc(C5CCOCC5)c4)nc3C2)cnc2c1NCCO2 [Example 76, 7-(8-methyl-2,3-dihydro-1H-pyrido[2,3-b][1,4]oxazin-7-yl)-N-(2-(tetrahydro-2H-pyran-4-yl)pyridin-4-yl)-5,6,7,8-tetrahydropyrido[3,4-d]pyrimidin-2-amine]	< 100	< 500	–
Cc1c(N2CCc3cnc(Nc4ccnc(N5CCOCC5)c4)nc3C2)cnc2c1NCCO2 [Example 77, 7-(8-methyl-2,3-dihydro-1H-pyrido[2,3-b][1,4]oxazin-7-yl)-N-(2-morpholinopyridin-4-yl)-5,6,7,8-tetrahydropyrido[3,4-d]pyrimidin-2-amine]	< 100	< 500	–
Cc1c(N2CCc3cnc(Nc4cccc(S(C)(=O)=O)c4)nc3C2)cnc2c1NCCO2 [Example 79, 7-(8-methyl-2,3-dihydro-1H-pyrido[2,3-b][1,4]oxazin-7-yl)-N-(3-(methylsulfonyl)phenyl)-5,6,7,8-tetrahydropyrido[3,4-d]pyrimidin-2-amine]	< 100	< 500	–
CCc1cc(Nc2ncc3c(n2)CN(c2cnc4c(c2C)NCCO4)CC3)ccc1N1CCC(O)CC1 [Example 80, 1-(2-ethyl-4-((7-(8-methyl-2,3-dihydro-1H-pyrido[2,3-b][1,4]oxazin-7-yl)-5,6,7,8-tetrahydropyrido[3,4-d]pyrimidin-2-yl)amino)phenyl)piperidin-4-ol]	< 100	500 to 1000	–
Cc1c(N2CCc3cnc(Nc4ccc5c(c4)CS(=O)(=O)C5)nc3C2)cnc2c1NCCO2 [Example 81, 5-((7-(8-methyl-2,3-dihydro-1H-pyrido[2,3-b][1,4]oxazin-7-yl)-5,6,7,8-tetrahydropyrido[3,4-d]pyrimidin-2-yl)amino)-1,3-dihydrobenzo[c]thiophene 2,2-dioxide]	< 100	< 500	–
Cc1c(N2CCc3cnc(Nc4cccc(C(C)(C)O)c4)nc3C2)cnc2c1NCCO2 [Example 82, 2-(3-((7-(8-methyl-2,3-dihydro-1H-pyrido[2,3-b][1,4]oxazin-7-yl)-5,6,7,8-tetrahydropyrido[3,4-d]pyrimidin-2-yl)amino)phenyl)propan-2-ol]	< 100	< 500	–
